Test results published in patent US11912645B2, “Lipopeptide compounds for the treatment of pain disorders” (INSERM (Institut National de la Santé et de la Recherche …, priority 2017, dated 2024).

Experiments:
[1] = tested on: mouse dorsal root ganglia (DRG) neurons; assay: Calcium mobilization in primary DRG sensory neurons, basal (unstimulated); format: cell-based; conditions: 10 μM
Description: (§1) Male C57B16 mice (6-8 weeks) were used to produce primary cultures of dorsal root ganglia (DRG) sensory neurons for calcium flux experiments, and to perform studies of colorectal distention and intestinal isotonic contraction. All procedures were approved by Institutional Animal Care Committees (CEEA 122).
To determine whether C12-Asn-GABA or C12-Asn-BABA is capable of signaling to sensory nerves, calcium mobilization studies were performed on primary cultures of mouse dorsal root ganglia (DRG) neurons. […] The same experiments were thereafter performed in neurons activated by either an agonist of the receptor calcium channel TRPV1 (capsaicin) or by a mix of agonists (histamine, serotonin and bradykinin) for G protein coupled receptors (GPCR) implicated in visceral hypersensitivity. Exposure of neurons to either capsaicin (125 nM) or the mix of GPCR agonists (histamine, bradykinin, serotonin, 10 μM each) induced an increase in calcium flux as shown by the higher % of responding neurons and amplitude of the response (ΔF/F) compared to the vehicle (FIG. 4A, 4B). […] To investigate whether the inhibitory effect of C12-Asn-GABA was associated to the GABA residue, neurons were treated with saclofen (10, 50, and 100 μM), a competitive antagonist of the GABAB receptor. […]

[2] = tested on: mouse sensory neurons activated by capsaicin; assay: Calcium flux in sensory neurons activated by capsaicin (TRPV1 agonist); format: cell-based
Description: (§2) FIG. 4: C12-Asn-GABA inhibits neuronal activation via the GABA B receptor. Amplitude of intracellular calcium mobilization (ΔF/F; right panel) in mouse sensory neurons and percentage of responding neurons (left panel) pretreated with increasing amounts of C12-Asn-GABA (black circle) or vehicle (HBSS; white circle) and treated with capsaicin (125 nM; A) or a mix of G protein coupled receptor agonists (histamine, serotonin and bradykinin 10 μM each; B). Data are represented as mean±SEM; n=4 independent experiments of 3 wells per condition and 30-80 neurons per well. […] Percentage of responding neurons pretreated with increasing amounts of saclofen (black circle) or vehicle (HBSS; white circle) and treated with C12-Asn-GABA (10 μM) and capsaicin (125 nM; C) or a mix of G protein coupled receptor agonist (histamine, serotonin and bradykinin 10 μM each; D). Data are represented as mean±SEM; n=4 independent experiments of 3 wells per condition and 30-80 neurons per well.
FIG. 7: C14-Asn-GABA inhibits neuronal activation by capsaicin. Amplitude of intracellular calcium mobilization (F/F; A) in mouse sensory neurons and percentage of responding neurons (B) pretreated with 10 μM of C14-Asn-GABA (black bar) or vehicle (HBSS; white bar) and treated with capsaicin (125 nM). Data are represented as mean±SEM; n=3 independent experiments of 3 wells per condition and 35-82 neurons per well.
as §1
To determine whether C12-Asn-GABA or C12-Asn-BABA is capable of signaling to sensory nerves, calcium mobilization studies were performed on primary cultures of mouse dorsal root ganglia (DRG) neurons. […]

[3] = tested on: mouse sensory neurons activated by mix of GPCR agonists (histamine, serotonin, bradykinin); assay: Calcium flux in sensory neurons activated by mix of GPCR agonists; format: cell-based; conditions: serotonin 10 μM each, pretreatment with increasing amounts of compound
Description: as §2
as §1, with “122). […]” for “122).”

[4] = tested on: capsaicin-induced visceral hypersensitivity; assay: Capsaicin-induced visceral hypersensitivity, visceromotor response to colorectal distension; format: in vivo, mouse; conditions: oral 25 mg/kg, 4 hours before intracolonic capsaicin 100 μg/mouse
Description: FIG. 6: C12-Asn-GABA inhibits capsaicin-induced visceral hypersensitivity without altering Intestinal contraction. Mice received intracolonic administration of C12-Asn-GABA (10 μM; black symbols) or vehicle (40% ethanol; white symbols) and 30 minutes or 4 hours later colon (A) and blood (B) were harvested in order to quantify C12-Asn-GABA by LC-MS/MS. Data are expressed as mean±SEM, n=8 mice per group. […] Mice received intracolonic administration of C12-Asn-GABA (10 μM; black symbols) or vehicle (40% ethanol; white symbols) and 30 minutes or 4 hours later an intracolonic administration of capsaicin (100 μg/mouse; square) or its vehicle (40% ethanol; circle). Fifteen minutes after capsaicin or vehicle treatment, visceromotor response (VMR) to increasing pressures of colorectal distension was performed. Data are expressed as mean±SEM, n=7-8 mice per group. […] Ex vivo measurement of duodenal mechanical contraction frequency (B) and amplitude (C) in response to Krebs-Ringer solution (control; white bar), to DMSO 0.2% (vehicle; gray bar) or to C12-Asn-GABA (10 μM; black bar). Data are expressed as mean±SEM, n=5-6 per group. Statistical analysis was performed using Kruskal-Wallis analysis of variance and subsequent Dunn's post hoc test.
FIG. 8: Trimebutine maleate has no effect on capsaicin-induced visceral hypersensitivity. Mice received an oral treatment with vehicle (PEG200, white circle) or with trimebutine maleate (25 mg/kg, black circle) and 4 hours later an intracolonic administration of capsaicin (100 μg/mouse; black and white circle). Fifteen minutes after capsaicin, visceromotor response (VMR) to increasing pressures of colorectal distension was performed. Data are expressed as mean±SEM, n=7-8 mice per group. […]
In a first set of experiment, we assessed the ability of the C12-Asn-GABA to cross the epithelial barrier, in vivo. […] The impact of C12-Asn-GABA on visceral hypersensitivity was assessed by measuring the visceromotor responses (VMR) to colorectal distension (CRD). […]

Caco-2 cells = assay: Absorption across Caco-2 monolayer in transwell chambers; format: in vitro ADME, human; conditions: 800 ng apical, 24 h, LC-HRMS
Description: FIG. 5: C12-Asn-GABA crosses the epithelial barrier without modifying epithelial cells physiology. Caco-2 cells were cultivated into transwell chambers. After treatment with C12-Asn-GABA (800 ng) at the apical side, C12-Asn-GABA was quantified inside the cells and both the apical and basolateral compartments by LC-MS/MS (A); data are represented as mean±SEM, n=3 experiments of 3 wells per condition. Extracted ion chromatogram at the exact mass of GABA (104.0702 m/z) with a mass accuracy of 5 ppm of the GABA commercial standard (GABA (Std.) and apical and basolateral compartments after loading or not Caco-2 cells with 800 ng of GABA at the apical site (B); representation of one well, n=3 experiments of 3 wells per condition. Paracellular permeability assessed by the passage of FITC-dextran loaded at the apical side (C) and CXCL8 secretion assessed by ELISA (D) were monitored after treatment of Caco-2 cells at the apical side with C12-Asn-GABA (10 μM); data are represented as mean±SEM, n=3 experiments of 3 wells per condition. […]
Caco-2 cells were grown in Glutamax DMEM (Gibco, Invitrogen life technologies, Paisley, UK) supplemented with 10% heat-inactivated fetal bovine serum (FBS) (Gibco, Invitrogen life technologies, Paisley, UK), 1% nonessential amino acids and 1% antibiotics (100 U/ml penicillin and […] streptomycin (Gibco, Invitrogen life technologies, Grand Island, N.Y., USA) at 37° C. in a 5% C02 water-saturated atmosphere. Cells were seeded on Transwell inserts (Costar, Sigma-Aldrich, Saint-Quentin Fallavier, France) and absorption studies of C12-Asn-GABA and GABA were performed 16 days later. These compounds were quantified by LC-MS/MS in both apical and basolateral chambers as well as in cells. The effect of C12-Asn-GABA (1-100 μM) on paracellular permeability was also measured by mucosal-to-serosal flux of 4 kDa Fluorescein Isothiocyanate (FITC)-labelled dextran as previously described^31. […]
The initial barrier for any drug absorption is the intestinal epithelial cell wall. […] The transport of GABA alone across the cell monolayer was also assessed. […]

For CCCCCCCCCCCC(=O)N[C@@H](CC(N)=O)C(=O)NC(C)CC(=O)O (stereo partly drawn) [C12-Asn-BABA, C12-Asn-β-aminobutyric], the “calcium mobilization under basal (unstimulated) conditions” value [1] was “None of the isomers (10 μM) induced calcium mobilization”, the “calcium flux increase induced by capsaicin (% responding neurons, amplitude ΔF/F)” value ([2]; capsaicin 125 nM, pretreatment with increasing amounts of compound) was “had no effect” and the “calcium flux increase induced by mix of GPCR agonists (% responding neurons, amplitude ΔF/F)” value [3] was “had no effect”.
In the case of “trimebutine maleate [reference compound]”, the “hypersensitivity induced by capsaicin (VMR to CRD)” value [4] is reported as “has no effect”.
NCCCC(=O)O [GABA, gamma-Aminobutyric acid, reference compound] was tested, and the “presence in the basal chamber” value (Caco-2 cells) was “not detected”.
CCCCCCCCCCCCCC(=O)NC(CC(N)=O)C(=O)NCCCC(=O)O (stereo not drawn) [C14-Asn-GABA] was tested, and the “calcium flux increase induced by capsaicin (amplitude, % responding neurons)” value ([2]; 10 μM, pre-treated 5 minutes before capsaicin 125 nM) was “prevented by C14-Asn-GABA pretreatment”.
